Test results taken from patent US20230263822A1, “MODULATION OF FACTOR 11 EXPRESSION” (Ionis Pharmaceuticals, Inc., priority 2008, published 2023).

Key:
[1] = Tolerability in CD1 mice: organ weight (Example 33); format: in vivo; details: 50 mg/kg s.c. twice a week, vs PBS control, normalized to body weight
Procedure: Three days after the last dose was administered to all groups, the mice were sacrificed.

human Factor 11 mRNA = experiment: Dose-dependent inhibition of human Factor 11 in HepG2 cells, electroporation 625-20,000 nM (Example 5); format: cell-based; details: ~16 hours
Procedure: The gapmers were also transfected via electroporation and their dose dependent inhibition of human Factor 11 mRNA was measured. Cells were plated at a density of 20,000 cells per well and transfected via electroporation with 625 nM, 1250 nM, 2500 nM, 5,000 nM, 10,000 nM, and 20,000 nM concentrations of antisense oligonucleotide, as specified in Table 12. After a treatment period of approximately 16 hours, RNA was isolated from the cells and human Factor 11 mRNA levels were measured by quantitative real-time PCR. Human Factor 11 primer probe set RTS 2966 was used to measure mRNA levels. Factor 11 mRNA levels were adjusted according to total RNA content, as measured by RIBOGREEN. Results are presented as percent inhibition of human Factor 11, relative to untreated control cells.

[2] = set-up: species or system CD1 mice; details: mouse, in vivo
Procedure: Five mice from each group were sacrificed 3 days, 28 days and 56 days following the final dose. Livers were harvested for analysis.
The concentration of the full-length oligonucleotide as well as the total oligonucleotide concentration (including the degraded form) was measured. The method used is a modification of previously published methods (Leeds et al., 1996; Geary et al., 1999) which consist of a phenol-chloroform (liquid-liquid) extraction followed by a solid phase extraction. An internal standard (ISIS 355868, a 27-mer 2′-O-methoxyethyl modified phosphorothioate oligonucleotide, […], designated herein as SEQ ID NO: 270) was added prior to extraction. […] Half-lives were then calculated using WinNonlin software ([…]).
The results are presented in Tables 68 and 69, expressed as μg/g liver tissue.

## 416838 (antisense GCAACCGGGATGATGAGTGC; 5-10-5 gapmer, further chemistry not given here) [compound 416838]
[1]; 2 weeks
  Percent change in kidney weight: −2%
  Percent change in liver weight: +8%
  Percent change in spleen weight: +21%
[1]; 4 weeks
  Percent change in kidney weight: −12%
  Percent change in liver weight: −6%
  Percent change in spleen weight: −8%
[1]; 6 weeks
  Percent change in kidney weight: −8%
  Percent change in liver weight: 0%
  Percent change in spleen weight: +9%
Human Factor 11 mRNA; 625 nM
  percent inhibition of human Factor 11 mRNA relative to untreated control cells: 66%
Human Factor 11 mRNA; 1250 nM
  percent inhibition of human Factor 11 mRNA relative to untreated control cells: 79%
Human Factor 11 mRNA; 2500 nM
  percent inhibition of human Factor 11 mRNA relative to untreated control cells: 87%
Human Factor 11 mRNA; 5000 nM
  percent inhibition of human Factor 11 mRNA relative to untreated control cells: 90%
Human Factor 11 mRNA; 10000 nM
  percent inhibition of human Factor 11 mRNA relative to untreated control cells: 93%
Human Factor 11 mRNA; 20000 nM
  percent inhibition of human Factor 11 mRNA relative to untreated control cells: 96%
[2]
  Half-Life in the liver: 13 days

## 416850 (antisense TGCACAGTTTCTGGCAGGCC; 5-10-5 gapmer, further chemistry not given here) [compound 416850]
[1]; 2 weeks
  Percent change in kidney weight: −0%
  Percent change in liver weight: +5%
  Percent change in spleen weight: −4%
[1]; 4 weeks
  Percent change in kidney weight: −12%
  Percent change in liver weight: +3%
  Percent change in spleen weight: +6%
[1]; 6 weeks
  Percent change in kidney weight: −11%
  Percent change in liver weight: +6%
  Percent change in spleen weight: +48%
Human Factor 11 mRNA; 625 nM
  percent inhibition of human Factor 11 mRNA relative to untreated control cells: 69%
Human Factor 11 mRNA; 1250 nM
  percent inhibition of human Factor 11 mRNA relative to untreated control cells: 80%
Human Factor 11 mRNA; 2500 nM
  percent inhibition of human Factor 11 mRNA relative to untreated control cells: 87%
Human Factor 11 mRNA; 5000 nM
  percent inhibition of human Factor 11 mRNA relative to untreated control cells: 90%
Human Factor 11 mRNA; 10000 nM
  percent inhibition of human Factor 11 mRNA relative to untreated control cells: 93%
Human Factor 11 mRNA; 20000 nM
  percent inhibition of human Factor 11 mRNA relative to untreated control cells: 96%
[2]
  Half-Life in the liver: 18 days

## 416858 (antisense ACGGCATTGGTGCACAGTTT; 5-10-5 gapmer, further chemistry not given here) [compound 416858]
[1]; 2 weeks
  Percent change in kidney weight: +1%
  Percent change in liver weight: +7%
  Percent change in spleen weight: −2%
[1]; 4 weeks
  Percent change in kidney weight: −18%
  Percent change in liver weight: +1%
  Percent change in spleen weight: +8%
[1]; 6 weeks
  Percent change in kidney weight: −10%
  Percent change in liver weight: +10%
  Percent change in spleen weight: +28%
Human Factor 11 mRNA; 625 nM
  percent inhibition of human Factor 11 mRNA relative to untreated control cells: 65%
Human Factor 11 mRNA; 1250 nM
  percent inhibition of human Factor 11 mRNA relative to untreated control cells: 77%
Human Factor 11 mRNA; 2500 nM
  percent inhibition of human Factor 11 mRNA relative to untreated control cells: 87%
Human Factor 11 mRNA; 5000 nM
  percent inhibition of human Factor 11 mRNA relative to untreated control cells: 89%
Human Factor 11 mRNA; 10000 nM
  percent inhibition of human Factor 11 mRNA relative to untreated control cells: 93%
Human Factor 11 mRNA; 20000 nM
  percent inhibition of human Factor 11 mRNA relative to untreated control cells: 93%
[2]
  Half-Life in the liver: 26 days

## 416864 (antisense GGCAGCGGACGGCATTGGTG; 5-10-5 gapmer, further chemistry not given here) [compound 416864]
[1]; 2 weeks
  Percent change in kidney weight: −4%
  Percent change in liver weight: −2%
  Percent change in spleen weight: −10%
[1]; 4 weeks
  Percent change in kidney weight: −9%
  Percent change in liver weight: +2%
  Percent change in spleen weight: −2%
[1]; 6 weeks
  Percent change in kidney weight: −15%
  Percent change in liver weight: −5%
  Percent change in spleen weight: −6%
Human Factor 11 mRNA; 625 nM
  percent inhibition of human Factor 11 mRNA relative to untreated control cells: 45%
Human Factor 11 mRNA; 1250 nM
  percent inhibition of human Factor 11 mRNA relative to untreated control cells: 74%
Human Factor 11 mRNA; 2500 nM
  percent inhibition of human Factor 11 mRNA relative to untreated control cells: 84%
Human Factor 11 mRNA; 5000 nM
  percent inhibition of human Factor 11 mRNA relative to untreated control cells: 87%
Human Factor 11 mRNA; 10000 nM
  percent inhibition of human Factor 11 mRNA relative to untreated control cells: 92%
Human Factor 11 mRNA; 20000 nM
  percent inhibition of human Factor 11 mRNA relative to untreated control cells: 94%
[2]
  Half-Life in the liver: 13 days

## 416892 (antisense GCCCTTCATGTCTAGGTCCA; 3-14-3 chimeric gapmer, further chemistry not given here) [compound 416892]
[1]; 2 weeks
  Percent change in kidney weight: +2%
  Percent change in liver weight: +35%
  Percent change in spleen weight: +24%
[1]; 4 weeks
  Percent change in kidney weight: −3%
  Percent change in liver weight: +88%
  Percent change in spleen weight: +30%
[1]; 6 weeks
  Percent change in kidney weight: +19%
  Percent change in liver weight: +95%
  Percent change in spleen weight: +65%
Human Factor 11 mRNA; 625 nM
  percent inhibition of human Factor 11 mRNA relative to untreated control cells: 66%
Human Factor 11 mRNA; 1250 nM
  percent inhibition of human Factor 11 mRNA relative to untreated control cells: 86%
Human Factor 11 mRNA; 2500 nM
  percent inhibition of human Factor 11 mRNA relative to untreated control cells: 96%
Human Factor 11 mRNA; 5000 nM
  percent inhibition of human Factor 11 mRNA relative to untreated control cells: 97%
Human Factor 11 mRNA; 10000 nM
  percent inhibition of human Factor 11 mRNA relative to untreated control cells: 100%
Human Factor 11 mRNA; 20000 nM
  percent inhibition of human Factor 11 mRNA relative to untreated control cells: 100%
[2]
  Half-Life in the liver: 12 days

## 416925 (antisense GGTGCACAGTTTCTGGCAGG; 3-14-3 gapmer chemistry, further chemistry not given here) [compound 416925]
[1]; 2 weeks
  Percent change in kidney weight: −4%
  Percent change in liver weight: +14%
  Percent change in spleen weight: −7%
[1]; 4 weeks
  Percent change in kidney weight: −14%
  Percent change in liver weight: +14%
  Percent change in spleen weight: +33%
[1]; 6 weeks
  Percent change in kidney weight: −2%
  Percent change in liver weight: +33%
  Percent change in spleen weight: +78%
Human Factor 11 mRNA; 625 nM
  percent inhibition of human Factor 11 mRNA relative to untreated control cells: 64%
Human Factor 11 mRNA; 1250 nM
  percent inhibition of human Factor 11 mRNA relative to untreated control cells: 80%
Human Factor 11 mRNA; 2500 nM
  percent inhibition of human Factor 11 mRNA relative to untreated control cells: 88%
Human Factor 11 mRNA; 5000 nM
  percent inhibition of human Factor 11 mRNA relative to untreated control cells: 91%
Human Factor 11 mRNA; 10000 nM
  percent inhibition of human Factor 11 mRNA relative to untreated control cells: 95%
Human Factor 11 mRNA; 20000 nM
  percent inhibition of human Factor 11 mRNA relative to untreated control cells: 96%
[2]
  Half-Life in the liver: 12 days

## 416999 (antisense GCACAGTTTCTGGCAGGCCT; 2-13-5 gapmer chemistry, further chemistry not given here) [compound 416999]
[1]; 2 weeks
  Percent change in kidney weight: −9%
  Percent change in liver weight: +13%
  Percent change in spleen weight: +7%
[1]; 4 weeks
  Percent change in kidney weight: −6%
  Percent change in liver weight: +30%
  Percent change in spleen weight: +22%
[1]; 6 weeks
  Percent change in kidney weight: −7%
  Percent change in liver weight: +47%
  Percent change in spleen weight: +38%
Human Factor 11 mRNA; 625 nM
  percent inhibition of human Factor 11 mRNA relative to untreated control cells: 61%
Human Factor 11 mRNA; 1250 nM
  percent inhibition of human Factor 11 mRNA relative to untreated control cells: 82%
Human Factor 11 mRNA; 2500 nM
  percent inhibition of human Factor 11 mRNA relative to untreated control cells: 89%
Human Factor 11 mRNA; 5000 nM
  percent inhibition of human Factor 11 mRNA relative to untreated control cells: 94%
Human Factor 11 mRNA; 10000 nM
  percent inhibition of human Factor 11 mRNA relative to untreated control cells: 94%
Human Factor 11 mRNA; 20000 nM
  percent inhibition of human Factor 11 mRNA relative to untreated control cells: 97%
[2]
  Half-Life in the liver: 9 days
